Measurements: US20240279278A1, “NMU RECEPTOR 2 AGONISTS” (Boehringer Ingelheim International GmbH, priority 2023, published 2024)
Residues, ends and D or L forms follow the SMILES beside them.

How the values were obtained:
[1] = molecular target: T1, human NMUR2 receptor (Homo sapiens, UniProt Q9GZQ4); test: IP1 Gq HTRF assay, activation of human NMUR2 in buffer; format: cell-based; design: expressed in transfected cells; host or cells: CHO-K1; settings: CHO-K1 cells expressing human NMUR2, stimulation buffer with 0.1% BSA; read-out: EC50 (hNMUR2) buffer
Description: Example 3: IP1 Gq HTRF Assay Activation of Human NMUR2 or Human NMUR1 in Buffer Application of the Homogenous Time Resolved Fluorescence (HTRF) technology optimized for Gq coupled receptors has been described in detail in the Cisbio IP-One Gq kit manual. In brief, a FRET signal (FRET: fluorescence resonance energy transfer) is generated between the donor label of an IP-One antibody (anti-IP1-Tb) and the acceptor label of a tagged IP-One (IP1-d2). Agonism of a Gq coupled receptor increases intracellular IP-One, which competes with labeled IP-One and leads to a reduction of the FRET signal. Frozen stocks of CHO-K1 cells stably expressing the human NMUR1 or NMUR2 receptor were thawed and 5000 cells were seeded in culture medium (HAM'S F12, 10% FCS) into each well of a 384-well assay plate. After seeding, cells were incubated for 24 h in a humidified incubator at 37° C. and 5% CO2. Next, cells were washed once with 50 μL of wash buffer (20 mM Hepes, 1×HBSS, pH 7.4), followed by addition of either 10 μL of stimulation buffer (20 mM Hepes, 1×HBSS, 50 mM LiCl, 0.1% BSA, pH 7.4). Peptide agonists to be tested were dissolved in 100% DMSO and pre-diluted in stimulation buffer at a suitable concentration range for an 8 pt dose-response curve. 5 μL of peptide pre-dilution were then added to each well, followed by another 5 μL of stimulation buffer to give a final concentration of 1% DMSO. Samples were subsequently incubated for 1 hour in a humidified incubator at 37° C. After addition of 5 μL each of IP1-d2 and anti-IP1-Tb, samples were incubated for another 1 hour at room temperature and FRET signals (ratio 665 nm/620 nm) were measured. EC50 values were calculated by nonlinear regression using a 4-parameter sigmoidal curve fit.

[2] = molecular target: T1, human NMUR2 receptor; test: IP1 Gq HTRF assay, activation of human NMUR2 in human plasma; format: cell-based; design: expressed in transfected cells; host or cells: CHO-K1; settings: CHO-K1 cells expressing human NMUR2, 100% human plasma; read-out: EC50 (hNMUR2) human plasma
Description: Example 4: IP1 Gq HTRF Assay Activation of Human NMUR2 in Human Plasma Application of the Homogenous Time Resolved Fluorescence (HTRF) technology optimized for Gq coupled receptors has been described in detail in the Cisbio IP-One Gq kit manual. In brief, a FRET signal is generated between the donor label of an IP-One antibody (anti-IP1-Tb) and the acceptor label of a tagged IP-One (IP1-d2). Agonism of a Gq coupled receptor increases intracellular IP-One, which competes with labeled IP-One and leads to a reduction of the FRET signal. Frozen stocks of CHO-K1 cells stably expressing the human NMUR1 receptor or human NMUR2 receptor were thawed and 5000 cells were seeded in culture medium (HAM'S F12, 10% FCS) into each well of a 384-well assay plate. After seeding, cells were incubated for 24 h in a humidified incubator at 37° C. and 5% CO2. Next, cells were washed once with […] of wash buffer (20 mM Hepes, 1×HBSS, pH 7.4), followed by addition of […] (100% human plasma, 50 mM LiCl). Peptide agonists to be tested were dissolved in 100% DMSO and pre-diluted in plasma at a suitable concentration range for an 8 pt dose-response curve. 5 μL of peptide pre-dilution were then added to each well, followed by another 5 μL of plasma to give a final concentration of 1% DMSO. Samples were subsequently incubated for 1 hour in a humidified incubator at 37° C. The plasma solution was replaced by 20 μL of stimulation buffer. After addition of 5 μL each of IP1-d2 and anti-IP1-Tb, samples were incubated for another 1 hour at room temperature and FRET signals (ratio 665 nm/620 nm) were measured. EC50 values were calculated by nonlinear regression using a 4-parameter sigmoidal curve fit.

T1 sequence (Q9GZQ4 whole entry): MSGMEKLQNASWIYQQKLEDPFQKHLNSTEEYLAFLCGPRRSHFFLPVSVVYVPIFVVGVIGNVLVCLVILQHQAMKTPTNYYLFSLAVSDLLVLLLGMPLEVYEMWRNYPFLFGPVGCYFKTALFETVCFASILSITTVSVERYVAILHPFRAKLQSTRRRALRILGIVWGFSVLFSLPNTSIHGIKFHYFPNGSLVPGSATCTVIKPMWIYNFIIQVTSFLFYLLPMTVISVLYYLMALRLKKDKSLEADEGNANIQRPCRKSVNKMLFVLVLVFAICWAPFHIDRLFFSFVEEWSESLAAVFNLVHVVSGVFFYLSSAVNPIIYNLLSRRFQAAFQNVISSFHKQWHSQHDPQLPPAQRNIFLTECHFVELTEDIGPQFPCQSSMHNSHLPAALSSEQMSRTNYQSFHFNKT

EC50 [1]	EC50 [2]	SMILES
1.8 nM	10 nM	CCCC[C@H](NC(=O)[C@H](CC(C)C)N(C)C(=O)[C@H](Cc1ccccc1)NC(=O)[C@H](Cc1ccc(O)cc1)NC(=O)CN1CCN(CCNC(=O)CN(C)C(=O)CN(C)C(=O)CN(C)C(=O)CN(C)C(=O)CN(C)C(=O)CN(C)C(=O)CN(C)C(=O)CN(C)C(=O)CN(C)C(=O)CN(C)C(=O)CN(C)C(=O)CN(C)C(=O)CC[C@H](NC(=O)CC[C@H](NC(=O)CC[C@H](NC(=O)CC[C@H](NC(=O)CCCCCCCCCCCCCCCCC(=O)O)C(=O)O)C(=O)O)C(=O)O)C(=O)O)CC1)C(=O)N[C@@H](CCCN)C(=O)N1CCC[C@H]1C(=O)N[C@@H](CCCNC(=N)N)C(=O)NCC(N)=O [Compound 5, C18DA-gGlu4-Sar12-AEPipAc-Tyr-Phe-NMeLeu-Nle-Orn-Pro-Arg-Gly-NH2]
3.2 nM	10.8 nM	CCCC[C@H](NC(=O)[C@H](CC(C)C)N(C)C(=O)[C@H](Cc1ccccc1)NC(=O)[C@H](Cc1ccc(O)cc1)NC(=O)CN1CCN(CCNC(=O)CN(C)C(=O)CN(C)C(=O)CN(C)C(=O)CN(C)C(=O)CN(C)C(=O)CN(C)C(=O)CN(C)C(=O)CN(C)C(=O)CN(C)C(=O)CN(C)C(=O)CN(C)C(=O)CN(C)C(=O)CC[C@H](NC(=O)CC[C@H](NC(=O)CC[C@H](NC(=O)CC[C@H](NC(=O)CCCCCCCCCCCCCCCCCCC(=O)O)C(=O)O)C(=O)O)C(=O)O)C(=O)O)CC1)C(=O)N[C@@H](CCN)C(=O)N1CCC[C@H]1C(=O)N[C@@H](CCCNC(=N)N)C(=O)NCC(N)=O [Compound 15, C20DA-gGlu4-Sar12-AEPipAc-Tyr-Phe-NMeLeu-Nle-Dbu-Pro-Arg-Gly-NH2]
4.5 nM	11.3 nM	CCCC[C@H](NC(=O)[C@H](CC(C)C)N(C)C(=O)[C@H](Cc1ccccc1)NC(=O)[C@H](Cc1ccc(O)cc1)NC(=O)CN1CCN(CCNC(=O)CN(C)C(=O)CN(C)C(=O)CN(C)C(=O)CN(C)C(=O)CN(C)C(=O)CN(C)C(=O)CN(C)C(=O)CN(C)C(=O)CN(C)C(=O)CN(C)C(=O)CN(C)C(=O)CN(C)C(=O)CC[C@H](NC(=O)CC[C@H](NC(=O)CC[C@H](NC(=O)CC[C@H](NC(=O)CCCCCCCCCCCCCCCCCCC(=O)O)C(=O)O)C(=O)O)C(=O)O)C(=O)O)CC1)C(=O)N[C@@H](CCCN)C(=O)N1CCC[C@H]1C(=O)N[C@@H](CCCNC(=N)N)C(=O)NCC(N)=O [Compound 40, C20DA-gGlu4-Sar12-AEPipAc-Tyr-Phe-NMeLeu-Nle-Orn-Pro-Arg-Gly-NH2]
4.5 nM	14.9 nM	CCCC[C@H](NC(=O)[C@H](CC(C)C)N(C)C(=O)[C@H](Cc1ccccc1)NC(=O)[C@H](Cc1ccc(O)cc1)NC(=O)CN1CCN(CCNC(=O)CN(C)C(=O)CN(C)C(=O)CN(C)C(=O)CN(C)C(=O)CN(C)C(=O)CN(C)C(=O)CN(C)C(=O)CN(C)C(=O)CN(C)C(=O)CN(C)C(=O)CN(C)C(=O)CN(C)C(=O)CC[C@H](NC(=O)CC[C@H](NC(=O)CC[C@H](NC(=O)CCCCCCCCCCCCCCCCCCC(=O)O)C(=O)O)C(=O)O)C(=O)O)CC1)C(=O)N[C@@H](CCCNC(=N)N)C(=O)N(C)[C@@H](C)C(=O)N[C@@H](CCCNC(=N)N)C(=O)NCC(N)=O [Compound 63, C20DA-gGlu3-Sar12-AEPipAc-Tyr-Phe-NMeLeu-Nle-Arg-NMeAla-Arg-Gly-NH2]
0.8 nM	5.2 nM	CCCC[C@H](NC(=O)[C@H](CC(C)C)N(C)C(=O)[C@H](Cc1ccccc1)NC(=O)[C@H](Cc1ccc(O)cc1)NC(=O)CN1CCN(C(=O)CN(C)C(=O)CN(C)C(=O)CN(C)C(=O)CN(C)C(=O)CN(C)C(=O)CN(C)C(=O)CN(C)C(=O)CN(C)C(=O)CN(C)C(=O)CN(C)C(=O)CN(C)C(=O)CN(C)C(=O)CC[C@H](NC(=O)CC[C@H](NC(=O)CC[C@H](NC(=O)CCCCCCCCCCCCCCCCC(=O)O)C(=O)O)C(=O)O)C(=O)O)CC1)C(=O)N[C@@H](CCCNC(=N)N)C(=O)N1CCC[C@H]1C(=O)N[C@@H](CCCNC(=N)N)C(=O)NCC(N)=O [Compound 77, C18DA-gGlu3-Sar12-PipAc-Tyr-Phe-NMeLeu-Nle-Arg-Pro-Arg-Gly-NH2]

SMILES	EC50 [1]	EC50 [2]
CCCC[C@H](NC(=O)[C@H](CC(C)C)N(C)C(=O)[C@H](Cc1ccccc1)NC(=O)[C@H](Cc1ccc(O)cc1)NC(=O)CN1CCN(CCNC(=O)CN(C)C(=O)CN(C)C(=O)CN(C)C(=O)CN(C)C(=O)CN(C)C(=O)CN(C)C(=O)CN(C)C(=O)CN(C)C(=O)CN(C)C(=O)CN(C)C(=O)CN(C)C(=O)CN(C)C(=O)CN(C)C(=O)CN(C)C(=O)CN(C)C(=O)CC[C@H](NC(=O)CC[C@H](NC(=O)CC[C@H](NC(=O)CC[C@H](NC(=O)CCCCCCCCCCCCCCCCCCC(=O)O)C(=O)O)C(=O)O)C(=O)O)C(=O)O)CC1)C(=O)N[C@@H](CCCCN)C(=O)N1CCC[C@H]1C(=O)N[C@@H](CCCNC(=N)N)C(=O)NCC(N)=O [Compound 17, C20DA-gGlu4-Sar15-AEPipAc-Tyr-Phe-NMeLeu-Nle-Lys-Pro-Arg-Gly-NH2] (HELM PEPTIDE1{[O=C(O)CCCCCCCCCCCCCCCCCCC(=O)[*:2]].[gGlu].[gGlu].[gGlu].[gGlu].[Sar].[Sar].[Sar].[Sar].[Sar].[Sar].[Sar].[Sar].[Sar].[Sar].[Sar].[Sar].[Sar].[Sar].[Sar].[O=C(CN1CCN(CCN[*:1])CC1)[*:2]].Y.F.[meL].[Nle].K.P.R.G.[am]}$$$$V2.0)	4.7 nM	24.8 nM
CCCC[C@H](NC(=O)[C@H](CC(C)C)N(C)C(=O)[C@H](Cc1ccccc1)NC(=O)[C@H](Cc1ccc(O)cc1)NC(=O)CN1CCN(CCNC(=O)CN(C)C(=O)CN(C)C(=O)CN(C)C(=O)CN(C)C(=O)CN(C)C(=O)CN(C)C(=O)CN(C)C(=O)CN(C)C(=O)CN(C)C(=O)CC[C@H](NC(=O)CC[C@H](NC(=O)CCCCCCCCCCCCCCCCC(=O)O)C(=O)O)C(=O)O)CC1)C(=O)N[C@@H](CCCNC(=N)N)C(=O)N(C)[C@@H](C)C(=O)N[C@@H](CCCNC(=N)N)C(=O)NCC(N)=O [Compound 66, C18DA-gGlu2-Sar9-AEPipAc-Tyr-Phe-NMeLeu-Nle-Arg-NMeAla-Arg-Gly-NH2] (HELM PEPTIDE1{[O=C(O)CCCCCCCCCCCCCCCCC(=O)[*:2]].[gGlu].[gGlu].[Sar].[Sar].[Sar].[Sar].[Sar].[Sar].[Sar].[Sar].[Sar].[O=C(CN1CCN(CCN[*:1])CC1)[*:2]].Y.F.[meL].[Nle].R.[meA].R.G.[am]}$$$$V2.0)	1.6 nM	18.9 nM
CCCC[C@H](NC(=O)[C@H](CC(C)C)N(C)C(=O)[C@H](Cc1ccccc1)NC(=O)[C@H](Cc1ccc(O)cc1)NC(=O)CN1CCN(CCNC(=O)CN(C)C(=O)CN(C)C(=O)CN(C)C(=O)CN(C)C(=O)CN(C)C(=O)CN(C)C(=O)CN(C)C(=O)CN(C)C(=O)CN(C)C(=O)CC[C@H](NC(=O)CC[C@H](NC(=O)CCCCCCCCCCCCCCCCC(=O)O)C(=O)O)C(=O)O)CC1)C(=O)N[C@@H](CCCNC(=N)N)C(=O)N1CCC[C@H]1C(=O)N[C@@H](CCCNC(=N)N)C(=O)NCC(N)=O [Compound 67, C18DA-gGlu2-Sar9-AEPipAc-Tyr-Phe-NMeLeu-Nle-Arg-Pro-Arg-Gly-NH2] (HELM PEPTIDE1{[O=C(O)CCCCCCCCCCCCCCCCC(=O)[*:2]].[gGlu].[gGlu].[Sar].[Sar].[Sar].[Sar].[Sar].[Sar].[Sar].[Sar].[Sar].[O=C(CN1CCN(CCN[*:1])CC1)[*:2]].Y.F.[meL].[Nle].R.P.R.G.[am]}$$$$V2.0)	0.9 nM	9.9 nM
